ChEMBL document CHEMBL1201862, “PubChem BioAssay data set” (2004)
Active and inactive are the calls of the source.

Columns and labels:
[1] = target: T1, Zinc finger protein mex-5 (Caenorhabditis elegans, UniProt Q9XUB2); experiment: MEX-5/TCR-2 RNA interaction inhibitors, dose response, biochemical, C. elegans, fluorescence polarization (AID 1960)
T1 sequence (Q9XUB2 whole entry): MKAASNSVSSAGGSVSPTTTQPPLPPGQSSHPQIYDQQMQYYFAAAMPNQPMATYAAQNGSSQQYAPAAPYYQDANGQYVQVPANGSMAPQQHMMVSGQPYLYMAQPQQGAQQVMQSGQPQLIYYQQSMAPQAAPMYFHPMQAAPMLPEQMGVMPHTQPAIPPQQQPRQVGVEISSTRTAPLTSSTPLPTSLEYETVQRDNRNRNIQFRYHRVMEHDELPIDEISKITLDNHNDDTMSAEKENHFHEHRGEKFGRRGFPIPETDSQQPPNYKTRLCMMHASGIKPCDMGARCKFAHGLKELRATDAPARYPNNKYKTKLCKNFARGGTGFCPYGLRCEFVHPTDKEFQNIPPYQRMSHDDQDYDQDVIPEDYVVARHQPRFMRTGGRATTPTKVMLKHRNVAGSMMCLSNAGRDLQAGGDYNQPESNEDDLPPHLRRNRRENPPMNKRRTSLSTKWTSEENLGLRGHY

[2] = target: Induced myeloid leukemia cell differentiation protein Mcl-1 (Homo sapiens, UniProt Q07820); type: functional
[3] = target: T2, Histone-lysine N-methyltransferase NSD2 (Homo sapiens, UniProt O96028); type: biochemical
T2 sequence (O96028 whole entry): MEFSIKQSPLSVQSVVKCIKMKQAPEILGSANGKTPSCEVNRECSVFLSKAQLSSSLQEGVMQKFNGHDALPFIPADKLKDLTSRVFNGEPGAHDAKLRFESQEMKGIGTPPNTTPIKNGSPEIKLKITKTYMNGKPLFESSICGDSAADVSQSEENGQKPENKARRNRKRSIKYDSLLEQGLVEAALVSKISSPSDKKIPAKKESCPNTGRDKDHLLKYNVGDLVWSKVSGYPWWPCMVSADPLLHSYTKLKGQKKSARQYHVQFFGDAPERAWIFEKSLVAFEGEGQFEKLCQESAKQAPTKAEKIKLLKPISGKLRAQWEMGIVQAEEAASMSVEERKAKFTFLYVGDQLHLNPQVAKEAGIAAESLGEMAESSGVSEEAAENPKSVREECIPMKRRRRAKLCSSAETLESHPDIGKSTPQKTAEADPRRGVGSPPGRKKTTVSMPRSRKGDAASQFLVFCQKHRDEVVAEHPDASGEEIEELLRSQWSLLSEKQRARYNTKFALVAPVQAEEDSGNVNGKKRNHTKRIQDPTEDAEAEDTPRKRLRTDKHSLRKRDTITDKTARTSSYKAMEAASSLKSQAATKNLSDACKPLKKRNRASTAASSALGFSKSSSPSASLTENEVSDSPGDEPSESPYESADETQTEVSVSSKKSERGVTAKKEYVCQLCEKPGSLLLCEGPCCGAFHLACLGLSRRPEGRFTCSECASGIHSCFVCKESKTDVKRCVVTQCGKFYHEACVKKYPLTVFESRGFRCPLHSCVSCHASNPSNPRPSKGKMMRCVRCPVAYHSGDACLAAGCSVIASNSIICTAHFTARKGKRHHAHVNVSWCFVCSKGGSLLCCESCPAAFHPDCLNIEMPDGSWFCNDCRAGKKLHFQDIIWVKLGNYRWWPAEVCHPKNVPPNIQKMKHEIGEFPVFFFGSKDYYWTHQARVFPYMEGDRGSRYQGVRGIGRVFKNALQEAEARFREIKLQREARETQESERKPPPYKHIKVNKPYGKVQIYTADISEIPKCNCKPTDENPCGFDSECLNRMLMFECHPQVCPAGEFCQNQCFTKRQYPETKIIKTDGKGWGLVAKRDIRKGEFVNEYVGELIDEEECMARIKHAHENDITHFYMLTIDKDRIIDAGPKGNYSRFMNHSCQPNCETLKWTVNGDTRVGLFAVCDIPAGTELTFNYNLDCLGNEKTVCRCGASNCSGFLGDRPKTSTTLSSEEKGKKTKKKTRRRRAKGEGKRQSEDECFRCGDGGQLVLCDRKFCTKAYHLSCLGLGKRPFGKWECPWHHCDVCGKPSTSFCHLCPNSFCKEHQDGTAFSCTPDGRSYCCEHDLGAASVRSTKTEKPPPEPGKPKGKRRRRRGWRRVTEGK

Cytochrome P450 3A4 = Cytochrome P450 3A4 (Homo sapiens, UniProt P08684); conditions: Potency;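 note: confirmatory qHTS run detecting inhibitors and substrates of CYP3A4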
Chain of Cytochrome P450 3A4 (P08684 whole entry): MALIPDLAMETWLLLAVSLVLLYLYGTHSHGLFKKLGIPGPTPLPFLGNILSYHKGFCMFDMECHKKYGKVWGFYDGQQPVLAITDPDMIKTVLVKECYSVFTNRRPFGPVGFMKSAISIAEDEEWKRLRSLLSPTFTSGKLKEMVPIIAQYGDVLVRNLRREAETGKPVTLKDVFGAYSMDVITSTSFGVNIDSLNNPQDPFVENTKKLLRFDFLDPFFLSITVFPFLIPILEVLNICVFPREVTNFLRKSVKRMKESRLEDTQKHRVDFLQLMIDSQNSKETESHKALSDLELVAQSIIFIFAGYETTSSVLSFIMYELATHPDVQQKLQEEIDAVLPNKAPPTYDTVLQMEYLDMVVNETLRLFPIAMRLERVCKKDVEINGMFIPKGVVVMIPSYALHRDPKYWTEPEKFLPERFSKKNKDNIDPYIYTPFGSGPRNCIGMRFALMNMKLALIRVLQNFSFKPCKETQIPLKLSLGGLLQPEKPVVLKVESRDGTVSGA

Chain of Induced myeloid leukemia cell differentiation protein Mcl-1 (Q07820 whole entry): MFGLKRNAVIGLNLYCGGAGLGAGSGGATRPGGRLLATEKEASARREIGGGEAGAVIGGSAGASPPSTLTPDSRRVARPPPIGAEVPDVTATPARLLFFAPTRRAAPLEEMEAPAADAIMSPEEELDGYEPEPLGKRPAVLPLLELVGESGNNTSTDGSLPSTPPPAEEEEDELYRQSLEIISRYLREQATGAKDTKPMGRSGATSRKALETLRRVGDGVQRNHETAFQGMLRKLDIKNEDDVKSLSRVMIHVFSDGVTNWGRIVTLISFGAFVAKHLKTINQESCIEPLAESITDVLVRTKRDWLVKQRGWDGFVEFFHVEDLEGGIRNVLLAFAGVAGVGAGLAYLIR

Which EC50 [1] does the source give for O=c1c(O)cccc2cc(O)c(O)c(O)c12 [PURPUROGALLIN] here?
Its EC50 is 0.152 µM (active).

What about the IC50 [2] of the same compound?
The IC50 was > 54 µM (active).

And the AC50 [3]?
The AC50 was 0.532 µM (active).

And the AC50 (Cytochrome P450 3A4)?
The AC50 was 31.6 µM (inconclusive).
